The test system of experiment [1] is Trypanosoma brucei Lister 427 strain, bloodstream form. The experiment can be described thus: Proliferation of Trypanosoma brucei (Cell Titer Glo). It is filed as cell-based. The note with it: 48 hours, read-out: T. brucei EC50. The text has this:
Assay for Proliferation of Kinetoplastid Parasite Trypanosoma brucei. The proliferation is quantified by the addition of Cell Titer Glo (Promega®) a luminescent cell viability assay that measures the number of viable cells in culture based on the quantification of cellular ATP amount, which is an indicator of metabolically active cells. The following assay illustrates the invention without in any way limiting the scope of the invention. This parasite proliferation assay measures the increase in parasite growth using an assay that measures ATP activity, Cell Titer Glo®. […] Then 25 μl of a suspension of T. brucei culture in HMI-9 media is dispensed into the assay plates. […] The plates are then read for luminescence.
On the technique in general: Cellular ATP, detected with luciferase, serves as a proxy for viable cell number.

The test system of experiment [2] is Leishmania donovani axenic amastigote parasites. The experiment can be described thus: Leishmania donovani axenic amastigote proliferation assay (Cell TiterGlo luminescence). To be noted: 48 h, axenic amastigotes, 2 day incubation, read-out: L. donovani amastigotes EC50. It counts as cell-based. As to the method: Leishmania donovani Axenic Amastigote Proliferation Assay […] At the same time control compounds and DMSO are added to plates to serve as the positive and negative controls, respectively. 40 μL of parasite culture (9600 parasites) are then added to the plate wells. The plates are then placed into incubators. After 2 day incubation, 20 μL of Cell TiterGlo (Promega) is added to the plate wells. The luminescence signal of each well is measured using the Envision reader (Perkin Elmer).

`CON(C)C(=O)Nc1cccc(-c2cn3cc(NC(=O)OC(C)C)cnc3n2)c1` [Compound 14, propan-2-yl N-[2-(3-{[methoxy(methyl)carbamoyl]amino}phenyl)imidazo[1,2-a]pyrimidin-6-yl]carbamate]: the EC50 (commonly the concentration at which the effect is half-maximal) turned out to be 479 nM in experiment [1] and 4200 nM in experiment [2].

For the origin of these results see patent US9296754B2, “Compounds and compositions for the treatment of parasitic diseases” (Novartis AG, priority 2013, dated 2016).
